We go through 21 molecules from US8222404B2, “[1,2,4]Thiadiazin-3-yl acetic acid compound and methods of making the acetic acid compound” (Anadys Pharmaceuticals, Inc., priority 2008, dated 2012).

The experiment relates to HCV Huh-luc/neo-ET replicon cells. Kind of experiment: Luciferase-Based HCV Replicon Assay (EC50 (1b)). It is filed as cell-based. The settings on record: Hepatitis C virus, 72 hours exposure, luciferase activity. Put shortly: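 Replicon cells seeded, then exposed 24 h later to a compound concentration series in triplicate for 72 h. Luciferase luminescence read; % inhibition vs no-compound control, with 100 nM BILN-2061 as background, used to derive EC50 (1b).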
Background: A replicon is a self-replicating genome or part of one, used to study replication in cells.

As usually defined, the EC50 is the concentration needed to bring the measured effect to its halfway point. The low end stands for an effect from little substance, the high end for a need for much substance.

For `CS(=O)(=O)NCc1csc2c1S(=O)(=O)N=C(C1=C(O)[C@@H]3[C@H]4CC[C@H](C4)[C@@H]3N(Cc3ccc(F)cc3Cl)C1=O)N2` [Example 94, N-{3-[(1R,2S,7R,8S)-3-(2-Chloro-4-fluoro-benzyl)-6-hydroxy-4-oxo-3-aza-tricyclo[6.2.1.0^2,7]undec-5-en-5-yl]-1,1-dioxo-1,4-dihydro-1λ^6-thieno[2,3-e][1,2,4]thiadiazin-7-ylmethyl}-methanesulfonamide], the EC50 was in the range of 20 to 100 nM.

For the molecule `CS(=O)(=O)NCc1csc2c1S(=O)(=O)N=C(C1=C(O)C3CCCCCC3N(Cc3cc(F)c(F)c(F)c3)C1=O)N2` (racemic) [Example 140, (rac-cis)-N-{3-[4-Hydroxy-2-oxo-1-(3,4,5-trifluoro-benzyl)-2,4a,5,6,7,8,9,9a-octahydro-1H-cyclohepta[b]pyridin-3-yl]-1,1-dioxo-1,4-dihydro-1λ^6-thieno[2,3-e][1,2,4]thiadiazin-7-ylmethyl}-methanesulfonamide], the 50% effective concentration (EC50) is > 1000 nM.

`CS(=O)(=O)NCc1csc2c1S(=O)(=O)N=C(C1=C(O)C3CCCCCC3N(Cc3ccc(F)c(Cl)c3)C1=O)N2` (racemic) [Example 123, (rac-cis)-N-{3-[1-(3-Chloro-4-fluoro-benzyl)-4-hydroxy-2-oxo-2,4a,5,6,7,8,9,9a-octahydro-1H-cyclohepta[b]pyridin-3-yl]-1,1-dioxo-1,4-dihydro-1λ^6-thieno[2,3-e][1,2,4]thiadiazin-7-ylmethyl}-methanesulfonamide]: the EC50 was 100 to 1000 nM.

`CS(=O)(=O)NCc1csc2c1S(=O)(=O)N=C(C1=C(O)[C@@H]3[C@@H]4CC[C@@H](C4)[C@@H]3NC1=O)N2` [Example 81, N-[3-((1S,2S,7R,8R)-6-Hydroxy-4-oxo-3-aza-tricyclo[6.2.1.0^2,7]undec-5-en-5-yl)-1,1-dioxo-1,4-dihydro-1λ^6-thieno[2,3-e][1,2,4]thiadiazin-7-ylmethyl]-methanesulfonamide]: the EC50 was > 1000 nM.

For `COc1ccc(CN2C(=O)C(C3=NS(=O)(=O)c4c(CNS(C)(=O)=O)csc4N3)=C(O)C3CCCCCC32)c(OC)c1` (racemic) [Example 79, (rac-cis)-N-{3-[1-(2,4-Dimethoxy-benzyl)-4-hydroxy-2-oxo-2,4a,5,6,7,8,9,9a-octahydro-1H-cyclohepta[b]pyridin-3-yl]-1,1-dioxo-1,4-dihydro-1λ^6-thieno[2,3-e][1,2,4]thiadiazin-7-ylmethyl}-methanesulfonamide], the EC50 was > 1000 nM.

`CS(=O)(=O)NCc1csc2c1S(=O)(=O)N=C(C1=C(O)C3C4CCC(O4)C3N(Cc3ccsc3)C1=O)N2` (racemic) [Example 61, (rac-di-exo)-N-[3-(6-Hydroxy-4-oxo-3-thiophen-3-ylmethyl-11-oxa-3-aza-tricyclo[6.2.1.0^2,7]undec-5-en-5-yl)-1,1-dioxo-1,4-dihydro-1λ^6-thieno[2,3-e][1,2,4]thiadiazin-7-ylmethyl]-methanesulfonamide] showed an EC50 of 20 to 100 nM.

`CS(=O)(=O)NCc1csc2c1S(=O)(=O)N=C(C1=C(O)[C@@H]3CCC[C@@H]3N(Cc3ccc(F)c(Cl)c3)C1=O)N2` [Example 113, (4aR,7aS)-N-{3-[1-(3-Chloro-4-fluoro-benzyl)-4-hydroxy-2-oxo-2,4a,5,6,7,7a-hexahydro-1H-[1]pyrindin-3-yl]-1,1-dioxo-1,4-dihydro-1λ^6-thieno[2,3-e][1,2,4]thiadiazin-7-ylmethyl}-methanesulfonamide] gave an EC50 of 20 to 100 nM.

`CS(=O)(=O)NCc1csc2c1S(=O)(=O)N=C(C1=C(O)[C@@H]3C4CCC(CC4)[C@@H]3N(Cc3ccccc3)C1=O)N2` [Example 48, N-[3-((2S,7R)-3-Benzyl-6-hydroxy-4-oxo-3-aza-tricyclo[6.2.2.0^2,7]dodec-5-en-5-yl)-1,1-dioxo-1,4-dihydro-1λ^6-thieno[2,3-e][1,2,4]thiadiazin-7-ylmethyl]-methanesulfonamide]: the EC50 was ≤ 5 nM.

For `CC(C)(C)CCN1C(=O)C(C2=NS(=O)(=O)c3c(CNS(C)(=O)=O)csc3N2)=C(O)C2C3C=CC(C3)C21` (racemic) [Example 65, (rac-di-exo)-N-{3-[3-(3,3-Dimethyl-butyl)-6-hydroxy-4-oxo-3-aza-tricyclo[6.2.1.0^2,7]undeca-5,9-dien-5-yl]-1,1-dioxo-1,4-dihydro-1λ^6-thieno[2,3-e][1,2,4]thiadiazin-7-ylmethyl}-methanesulfonamide], the concentration giving a half-maximal response (EC50) is ≤ 5 nM.

In the case of `CC(C)CCN1C(=O)C(C2=NS(=O)(=O)c3c(CNS(C)(=O)=O)csc3N2)=C(O)C2CCCCC21` (racemic) [Example 132, (rac-cis)-N-{3-[4-Hydroxy-1-(3-methyl-butyl)-2-oxo-1,2,4a,5,6,7,8,8a-octahydro-quinolin-3-yl]-1,1-dioxo-1,4-dihydro-1λ^6-thieno[2,3-e][1,2,4]thiadiazin-7-ylmethyl}-methanesulfonamide], the EC50 lay within 20 to 100 nM.

In the case of `CS(=O)(=O)NCc1csc2c1S(=O)(=O)N=C(C1=C(O)C3CCCCC3N(C3CCCCC3)C1=O)N2` (racemic) [Example 100, (rac-cis)-N-[3-(1-Cyclohexyl-4-hydroxy-2-oxo-1,2,4a,5,6,7,8,8a-octahydro-quinolin-3-yl)-1,1-dioxo-1,4-dihydro-1λ^6-thieno[2,3-e][1,2,4]thiadiazin-7-ylmethyl]-methanesulfonamide], the EC50 was in the range of 100 to 1000 nM.

In turn, `CS(=O)(=O)NCc1csc2c1S(=O)(=O)N=C(C1=C(O)C3CCCCCC3N(Cc3ccccc3)C1=O)N2` (racemic) [Example 136, (rac-cis)-N-[3-(1-Benzyl-4-hydroxy-2-oxo-2,4a,5,6,7,8,9,9a-octahydro-1H-cyclohepta[b]pyridin-3-yl)-1,1-dioxo-1,4-dihydro-1λ^6-thieno[2,3-e][1,2,4]thiadiazin-7-ylmethyl]-methanesulfonamide] yielded an EC50 of 20 to 100 nM.

For `CS(=O)(=O)NCc1csc2c1S(=O)(=O)N=C(C1=C(O)[C@@H]3C4CCC(CC4)[C@@H]3N(Cc3ccc(F)c(F)c3)C1=O)N2` [Example 92, N-{3-[(2S,7R)-3-(3,4-Difluoro-benzyl)-6-hydroxy-4-oxo-3-aza-tricyclo[6.2.2.0^2,7]dodec-5-en-5-yl]-1,1-dioxo-1,4-dihydro-1λ^6-thieno[2,3-e][1,2,4]thiadiazin-7-ylmethyl}-methanesulfonamide], the EC50 was ≤ 5 nM.

In turn, `CS(=O)(=O)NCc1csc2c1S(=O)(=O)N=C(C1=C(O)C3CCCCCC3N(Cc3ccc(F)cc3)C1=O)N2` (racemic) [Example 120, (rac-cis)-N-{3-[1-(4-Fluoro-benzyl)-4-hydroxy-2-oxo-2,4a,5,6,7,8,9,9a-octahydro-1H-cyclohepta[b]pyridin-3-yl]-1,1-dioxo-1,4-dihydro-1λ^6-thieno[2,3-e][1,2,4]thiadiazin-7-ylmethyl}-methanesulfonamide] came in with an EC50 of 20 to 100 nM.

In turn, `CC1CN(Cc2ccc(F)cc2)C(=O)C(C2=NS(=O)(=O)c3c(CNS(C)(=O)=O)csc3N2)=C1O` (racemic) [Example 10, rac-N-{3-[1-(4-Fluoro-benzyl)-4-hydroxy-5-methyl-2-oxo-1,2,5,6-tetrahydro-pyridin-3-yl]-1,1-dioxo-1,4-dihydro-1λ^6-thieno[2,3-e][1,2,4]thiadiazin-7-ylmethyl}-methanesulfonamide] returned an EC50 of 100 to 1000 nM.

For `CS(=O)(=O)NCc1csc2c1S(=O)(=O)N=C(C1=C(O)C3C4C=CC(C4)C3N(Cc3ccccc3)C1=O)N2` (racemic) [Example 46, (rac-di-exo)-N-[3-(3-Benzyl-6-hydroxy-4-oxo-3-aza-tricyclo[6.2.1.0^2,7]undeca-5,9-dien-5-yl)-1,1-dioxo-1,4-dihydro-1λ^6-thieno[2,3-e][1,2,4]thiadiazin-7-ylmethyl]-methanesulfonamide], the EC50 was ≤ 5 nM.

As for `CS(=O)(=O)NCc1csc2c1S(=O)(=O)N=C(C1=C(O)C3CCCCC3N(Cc3ccc(F)c(Cl)c3)C1=O)N2` (racemic) [Example 119, (rac-cis)-N-{3-[1-(3-Chloro-4-fluoro-benzyl)-4-hydroxy-2-oxo-1,2,4a,5,6,7,8,8a-octahydro-quinolin-3-yl]-1,1-dioxo-1,4-dihydro-1λ^6-thieno[2,3-e][1,2,4]thiadiazin-7-ylmethyl}-methanesulfonamide], the EC50 lay in the range of 100 to 1000 nM.

As to `CS(=O)(=O)NCc1csc2c1S(=O)(=O)N=C(C1=C(O)CC(C3CC3)N(Cc3ccc(F)cc3)C1=O)N2` (racemic) [Example 4, rac-N-{3-[6-Cyclopropyl-1-(4-fluoro-benzyl)-4-hydroxy-2-oxo-1,2,5,6-tetrahydro-pyridin-3-yl]-1,1-dioxo-1,4-dihydro-1λ^6-thieno[2,3-e][1,2,4]thiadiazin-7-ylmethyl}-methanesulfonamide], the EC50 fell in the range of 100 to 1000 nM.

Regarding `CS(=O)(=O)NCc1csc2c1S(=O)(=O)N=C(C1=C(O)[C@@H]3[C@H]4CC[C@H](C4)[C@@H]3N(Cc3ccc(F)cc3)C1=O)N2` [Example 1, (1R,2S,7R,8S)—N-{3-[3-(4-Fluoro-benzyl)-6-hydroxy-4-oxo-3-aza-tricyclo[6.2.1.0^2,7]undec-5-en-5-yl]-1,1-dioxo-1,4-dihydro-1λ^6-thieno[2,3-e][1,2,4]thiadiazin-7-ylmethyl}-methanesulfonamide], the EC50 was ≤ 5 nM.

For the molecule `COc1ccc(CN2C(=O)C(C3=NS(=O)(=O)c4c(CNS(C)(=O)=O)csc4N3)=C(O)[C@@H]3CCC[C@@H]32)c(OC)c1` [Example 77, (4aR,7aS)-N-{3-[1-(2,4-Dimethoxy-benzyl)-4-hydroxy-2-oxo-2,4a,5,6,7,7a-hexahydro-1H-[1]pyrindin-3-yl]-1,1-dioxo-1,4-dihydro-1λ^6-thieno[2,3-e][1,2,4]thiadiazin-7-ylmethyl}-methanesulfonamide], the EC50 is > 1000 nM.

`CC(C)CCN1C(=O)C(C2=NS(=O)(=O)c3c(CNS(C)(=O)=O)csc3N2)=C(O)[C@@H]2C3CCC(CC3)[C@@H]21` [Example 71, N-{3-[(2S,7R)-6-Hydroxy-3-(3-methyl-butyl)-4-oxo-3-aza-tricyclo[6.2.2.0^2,7]dodec-5-en-5-yl]-1,1-dioxo-1,4-dihydro-1λ^6-thieno[2,3-e][1,2,4]thiadiazin-7-ylmethyl]-methanesulfonamide] showed a concentration for a half-maximal effect (EC50) of 5 to 20 nM.
